The values that follow come from US7745404B2, “Use of calcitonin and calcitonin-like peptides to treat and prevent multiple sclerosis” (Wisconsin Alumni Research Foundation, priority 2002, dated 2010).

Holding throughout (assay type): in vivo
Series [1] concerns experimental autoimmune encephalomyelitis (EAE) in male 1α-OH KO mice. Put plainly: EAE (murine model of MS) in male 1α-OH KO mice, Example 1. The procedure: To determine the effect of calcitonin on the murine model of MS, experimental autoimmune encephalomyelitis (EAE), 25-hydroxyvitamin D3-1α-hydroxylase knockout mice (1α-OH KO) were maintained on a purified diet containing 0.87% calcium and 1 ng 1,25-(OH)2D3 (Vit D) for two to three weeks prior to EAE immunization. EAE was induced at six to ten weeks of age by subcutaneous immunization of 200 μg of the immunodominant peptide to myelin oligodendrocyte glycoproprotein (MOG35-55).
The peptide was synthesized at University of Wisconsin Biotechnology Center using standard 9-fluorenyl-methoxy-carbonyl chemistry. The peptide was dissolved in Freund's complete adjuvant (CFA; Sigma; St. Louis, Mo.) containing 4 mg/ml of heat-inactivated Mycobacterium tuberculosis […] (Difco Laboratories; Detroit, Mich.).
Mice were injected with 200 ng of Bordetella pertussis toxin (List Biological Laboratories, Campbell, Calif.) on the day of immunization and 48 hours later. The mice were examined daily for clinical signs of EAE utilizing the following scoring system: 0, no sign; 1, limp tail; 2, hindlimb weakness; 3, hindlimb paralysis; 4, forelimb paralysis; 5, moribund or death.
Salmon calcitonin (sCT; Bachem California; Torrence, Calif.) was dissolved to a concentration of 1 mg/ml in a vehicle containing 150 mM NaCl, 1 mM HCl, and 2% heat inactivated sera. The serum used was from 1α-OH KO mice matched by sex to the group of mice receiving the treatment. SCT was chronically administered using Alzet osmotic minipumps model 1002 (Durect Corp.; Cupertino, Calif.) calibrated to deliver 0.25 μl/hour over a 15 day period.
(§1) Ten days after immunization, mice were weighed and the pumps were filled with either vehicle or sCT diluted to deliver 6 μg/kg of body weight per day to each mouse. The pumps were surgically placed subcutaneously in the upper back of mice anesthetized with 2% isofluorane. At the end of the study, successful delivery of the sCT was assessed by two methods. First, the fluid volume remaining in the pump reservoirs was measured. Second, the remaining sCT was pooled and intraperitoneally injected into 1α-knockout mice that were not included in the initial study. Serum calcium measurements were taken six hours after injection to determine if sCT maintained its bioactivity throughout the study. Blood samples were collected at multiple time-points throughout the study to monitor changes in serum calcium levels. Blood was obtained by the orbital bleed method. Approximately 150 μl was collected per mouse.
Statistical analysis was performed using the two-tailed Fisher exact probability test on incidence rates and the unpaired Student's t-test on all other measurements. Values of P<0.05 were considered statistically significant.

Series [2] relates to EAE in female C57BL/6J mice. Put plainly: EAE in female C57BL/6J mice, sCT dose levels, Example 3. The note with it: for % Sick / Incidence / Severity / Mean Onset Day: female C57BL/6J mice, standard chow; for Incidence: animals sick/total; for Severity: EAE score 0-5; for Mean Onset Day: days post immunization. An excerpt: To determine the effect of calcitonin on EAE in C57BL/6J mice (C57BL6 mice from Jackson Labs), female mice were maintained on a standard chow diet prior to and following EAE immunization. The C57BL6J strain was chosen primarily because it is one of the few strains susceptible to MOG-induced EAE, and also because the 1α-KO has been backcrossed into the C57BL6J strain. The diet was changed primarily because the mice being used were wild-type and no longer required the supplemented 1,25(OH)2D3 that the 1α-KO mice do. Additionally, we have typically seen higher incidence rates when animals are maintained on a regular chow diet versus the purified diet.
(§2) EAE was induced as described above. Mice were injected with 200 ng of B. pertussis toxin on the day of immunization and 48 hours later.
(§3) sCT was prepared as described above. One week after immunization, mice were weighed and the pumps were filled with vehicle, 6 μg/kg of sCT per day of body weight or 60 μg/kg of sCT per day of body weight to each mouse. The pumps were surgically placed subcutaneously in the upper back of mice anesthetized with 2% isofluorane. At the end of the study, successful delivery of the sCT was assessed by two methods. First, the fluid volume remaining in the pump reservoirs was measured. Second, the remaining sCT was pooled and intraperitoneally injected into C57BL/6J mice that were not included in the initial study. Serum calcium measurements were taken six hours after injection to determine if sCT maintained its bioactivity throughout the study.
(§4) Mice were examined daily, for over two weeks, for clinical signs of EAE utilizing the following scoring system as described above.
Blood samples were collected at multiple time-points and prepared and analyzed as described above. Likewise, statistical analysis was as performed as noted above.

Series [3] has as its system EAE in female C57BL/6J mice. Briefly: EAE in female C57BL/6J mice, calcitonin and Vit D, Example 4. The following applies: female C57BL6J mice, sCT (30 μg/kg per day), compared to 1 ng Vit D alone (FIG. 5, Table 6). Here is the method: To determine the effect of calcitonin and Vit D on EAE in C57BL/6J mice, female C57BL/6J mice were maintained on standard chow until eight weeks of age, and then switched to a purified diet containing 0.87% calcium supplemented with 1 ng or 30 ng of 1,25-(OH)2D3 for one week prior to EAE immunization.
as §2
as §3, with “vehicle or 30” for “vehicle, 6”, “μg/kg” for “μg/kg of sCT”, “of” for “of body weight or 60 μg/kg of”, “sCT” for “sCT per day”
as §4
Blood samples were collected at multiple time-points and prepared and analyzed as described above. Likewise, statistical analysis was performed as noted above.

A short description of series [4]: Serum calcium in 1α-OH KO mice, Example 1. The note with it: 6 μg/kg of calcitonin. The procedure: as §1
Collected blood samples were centrifuged at 6000 rpm for 15 minutes; followed by another 60-second spin at 14000 rpm. Serum samples were diluted in 0.1% LaCl3 and serum calcium values were measured using a Perkin Elmer atomic absorption spectrometer.

Salmon calcitonin [sCT]: the “% Sick” value in series [1] (male 1α-KO mice, 0.87% calcium + 1 ng Vitamin D diet, sCT 6 μg/kg per day by minipump) is 28.6%; in series [2] (6 μg/kg sCT), 82.0%; in series [2] (60 μg/kg sCT), 67.0%. Also, the Severity in series [1] (male 1α-KO mice, 0.87% calcium + 1 ng Vitamin D diet, sCT 6 μg/kg per day by minipump, EAE score 0-5) stood at 2.5 ± 0.7; in series [2] (6 μg/kg sCT), 3.8 ± 0.6; in series [2] (60 μg/kg sCT) it was 3.5 ± 1.3. Also, the “Mean Onset Day” value in series [1] (male 1α-KO mice, 0.87% calcium + 1 ng Vitamin D diet, sCT 6 μg/kg per day by minipump, days post immunization) amounted to 30 ± 8 days; in series [2] (6 μg/kg sCT), 14 ± 3 days; in series [2] (60 μg/kg sCT), 16 ± 2 days. Besides, the Incidence in series [1] (male 1α-KO mice, 0.87% calcium + 1 ng Vitamin D diet, sCT 6 μg/kg per day by osmotic minipump from ten days after immunization, animals sick/total) is recorded as 2/7 sick; in series [2] (6 μg/kg sCT per day by minipump from one week after immunization), 9/11 sick; in series [2] (60 μg/kg sCT per day by minipump from one week after immunization) it was 6/9 sick. Also, the “reduction in the EAE score, male versus female” value in series [1] (male 1α-OH KO mice treated with calcitonin compared with female 1α-OH KO mice treated with calcitonin) is on record as “similar, but lesser, reduction in the EAE score”. The EAE score entry was “lowered the EAE score” in series [1] (male 1α-OH KO mice, compared to vehicle alone (FIG. 2, Table 3)); “delayed and diminished the EAE score” in series [2] (female C57BL6J mice administered 60 μg/kg of calcitonin, compared to vehicle alone (FIG. 4, Table 5)); “delayed and diminished the EAE score” in series [3]. Further, the serum calcium levels result in series [4] (female 1α-OH KO mice) is “generally unaffected”; in series [4] (male 1α-OH KO mice), “unaffected”.
